Assays:
[1] = target: GST-tagged K-Ras mutant / His-tagged hSOS1 (Homo sapiens, UniProt P01116); assay: HTRF assay, K-Ras mutant / SOS1 interaction; format: binding; conditions: compound nos. 102-196, general methodology of example 5; read-out: IC50 against mutant Kras
Method in brief: (§1)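 Buffer ~5 mM HEPES pH 7.4, ~150 mM NaCl, ~1 mM DTT, 0.05% BSA, 0.0025% Igepal. Cpd in DMSO + Ras/donor mix + SOS1/acceptor mix; ≥10 min; HTRF 665/620 ratio → IC50.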

wildtype Kras / hSOS1 = target: T1, wildtype Kras / hSOS1 (Homo sapiens, UniProt P01116); assay: HTRF assay, wildtype Kras / SOS1 interaction; format: binding; conditions: compound nos. 102-196, general methodology of example 5; read-out: IC50 against wildtype Kras
T1 construct: made in house; host or cells: E. coli BL21 (DE3)
T1 sequence (P01116 1-188 isoform P01116-2): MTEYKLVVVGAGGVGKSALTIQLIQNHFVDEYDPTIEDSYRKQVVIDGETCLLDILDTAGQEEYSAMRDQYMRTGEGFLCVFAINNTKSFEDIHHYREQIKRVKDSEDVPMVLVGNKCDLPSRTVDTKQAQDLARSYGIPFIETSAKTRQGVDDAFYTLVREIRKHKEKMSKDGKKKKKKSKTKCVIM
Method in brief: as §1

Sequence of GST-tagged K-Ras mutant / His-tagged hSOS1 (P01116 whole entry G12D, form open): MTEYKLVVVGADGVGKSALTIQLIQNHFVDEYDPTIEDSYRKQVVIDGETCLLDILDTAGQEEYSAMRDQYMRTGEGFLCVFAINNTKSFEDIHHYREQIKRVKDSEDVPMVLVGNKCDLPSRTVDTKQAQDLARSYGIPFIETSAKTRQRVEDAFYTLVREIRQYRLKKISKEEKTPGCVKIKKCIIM

Row | SMILES | IC50 [1] | IC50 (wildtype Kras / hSOS1)
1 | Nc1nc2c(-c3c(Cl)cc4c(N5CCCOCC5)nc(OCC56CCCN5CCC6)nc4c3F)ccc(F)c2s1 [Compound 148, 4-(6-chloro-8-fluoro-4-(1,4-oxazepan-4-yl)-2-((tetra-hydro-1H-pyrrolizin-7a(5H)-yl)methoxy)quinazolin-7-yl)-7-fluorobenzo[d]thiazol-2-amine] | < 0.5 µM | < 0.5 µM
2 | CN1CCC[C@H]1COc1nc(N2CCNCC(F)(F)C2)c2cc(Cl)c(-c3cccc4sc(NCC(F)(F)F)nc34)c(F)c2n1 [Compound 149, 4-(6-chloro-4-(6,6-difluoro-1,4-diazepan-1-yl)-8-fluoro-2-(((S)-1-methylpyrrolidin-2-yl)methoxy)quinazolin-7-yl)-N-(2,2,2-trifluoroethyl)-benzo[d]thiazol-2-amine] | > 0.5 µM | > 0.5 µM
3 | CN1CCC[C@H]1COc1nc(N2CCN(S(N)(=O)=O)CC(F)(F)C2)c2cc(Cl)c(-c3cccc4sc(N)nc34)c(F)c2n1 [Compound 150, 4-(7-(2-aminobenzo[d]-thiazol-4-yl)-6-chloro-8-fluoro-2-(((S)-1-methyl-pyrrolidin-2-yl)methoxy)-quinazolin-4-yl)-6,6-difluoro-1,4-diazepane-1-sulfonamide] | > 0.5 µM | < 0.5 µM
4 | CN1CCC[C@H]1COc1nc(N2CCNCC(F)(F)C2)c2cc(Cl)c(-c3cccc4sc(N)nc34)c(OCc3ccccn3)c2n1 [Compound 155, 4-(6-chloro-4-(6,6-difluoro-1,4-diazepan-1-yl)-2-(((S)-1-methylpyrrolidin-2-yl)-methoxy)-8-(pyridin-2-yl-methoxy)quinazolin-7-yl)-benzo[d]thiazol-2-amine] | > 0.5 µM | > 0.5 µM
5 | Nc1nc2c(-c3c(Cl)cc4c(N5CCOCC(O)C5)nc(OCC56CCCN5C[C@H](F)C6)nc4c3F)ccc(F)c2s1 (stereo partly drawn) [Compound 160, 4-(7-(2-amino-7-fluoro-benzo[d]thiazol-4-yl)-6-chloro-8-fluoro-2-(((2R)-2-fluorotetrahydro-1H-pyrrol-izin-7a(5H)-yl)methoxy)-quinazolin-4-yl)-1,4-oxazepan-6-ol] | > 0.5 µM | < 0.5 µM
6 | Nc1nc2c(-c3c(Cl)cc4c(N5CCNCC(O)C5)nc(OCC56CCCN5C[C@H](F)C6)nc4c3F)ccc(F)c2s1 (stereo partly drawn) [Compound 162, 1-(7-(2-amino-7-fluoro-benzo[d]thiazol-4-yl)-6-chloro-8-fluoro-2-(((2R)-2-fluorotetrahydro-1H-pyrrol-izin-7a(5H)-yl)methoxy)-quinazolin-4-yl)-1,4-diazepan-6-ol] | < 0.5 µM | < 0.5 µM
7 | Nc1nc2c(-c3c(Cl)cc4c(N5CCNCC(F)C5)nc(OC[C@@]56CCCN5C[C@H](F)C6)nc4c3F)ccc(F)c2s1 (stereo partly drawn) [Compound 164, 4-(6-chloro-8-fluoro-4-(6-fluoro-1,4-diazepan-1-yl)-2-(((2R,7aS)-2-fluorotetra-hydro-1H-pyrrolizin-7a(5H)-yl)methoxy)quinazolin-7-yl)-7-fluorobenzo[d]thiazol-2-amine] | < 0.5 µM | < 0.5 µM
8 | Nc1nc2c(-c3c(Cl)cc4c(N5CCOCC(N)C5)nc(OCC56CCCN5CCC6)nc4c3F)ccc(F)c2s1 (stereo not drawn) [Compound 165, 4-(7-(2-amino-7-fluoro-benzo[d]thiazol-4-yl)-6-chloro-8-fluoro-2-((tetra-hydro-1H-pyrrolizin-7a(5H)-yl)methoxy)quinazolin-4-yl)-1,4-oxazepan-6-amine] | < 0.5 µM | < 0.5 µM
9 | Nc1nc2c(-c3c(Cl)cc4c(N5CCCCC(F)(F)C5)nc(OC[C@@]56CCCN5C[C@H](F)C6)nc4c3F)ccc(F)c2s1 [Compound 168, 4-(6-chloro-4-(3,3-difluoro-azepan-1-yl)-8-fluoro-2-(((2R,7aS)-2-fluorotetra-hydro-1H-pyrrolizin-7a(5H)-yl)methoxy)quinazolin-7-yl)-7-fluorobenzo[d]thiazol-2-amine] | < 0.5 µM | < 0.5 µM
10 | CN1CCC[C@H]1COc1nc(N2CCNCC(F)(F)C2)c2cc(Cl)c(-c3cccc4cccc(Cl)c34)c(F)c2n1 [Compound 170, 6-chloro-7-(8-chloronaph-thalen-1-yl)-4-(6,6-difluoro-1,4-diazepan-1-yl)-8-fluoro-2-(((S)-1-methylpyrrolidin-2-yl)methoxy)quinazoline] | > 0.5 µM | > 0.5 µM

Second part, the molecule after the results:

Row | IC50 [1] | IC50 (wildtype Kras / hSOS1) | SMILES
11 | > 0.5 µM | > 0.5 µM | Nc1nc2c(-c3c(Cl)cc4c(N5CCNCC(F)(F)C5)nc(OCC56CCCN5C(=O)CC6)nc4c3F)cccc2s1 (stereo not drawn) [Compound 151, 7a-(((7-(2-aminobenzo[d]-thiazol-4-yl)-6-chloro-4-(6,6-difluoro-1,4-diazepan-1-yl)-8-fluoroquinazolin-2-yl)oxy)methyl)hexahydro-3H-pyrrolizin-3-one]
12 | > 0.5 µM | > 0.5 µM | CN1CCc2c(cccc2Oc2nc(N3CCNCC(F)(F)C3)c3cc(Cl)c(-c4cccc5sc(N)nc45)c(F)c3n2)C1 [Compound 153, 4-(6-chloro-4-(6,6-difluoro-1,4-diazepan-1-yl)-8-fluoro-2-((2-methyl-1,2,3,4-tetra-hydroisoquinolin-5-yl)oxy)-quinazolin-7-yl)benzo[d]-thiazol-2-amine]
13 | < 0.5 µM | < 0.5 µM | Nc1nc2c(-c3c(Cl)cc4c(N5CCCOCC5)nc(OC[C@@]56CCCN5C[C@H](F)C6)nc4c3F)ccc(F)c2s1 [Compound 154, 4-(6-chloro-8-fluoro-2-(((2R,7aS)-2-fluorotetra-hydro-1H-pyrrolizin-7a(5H)-yl)methoxy)-4-(1,4-oxazepan-4-yl)quin-azolin-7-yl)-7-fluoro-benzo[d]-thiazol-2-amine]
14 | < 0.5 µM | < 0.5 µM | Nc1nc2c(-c3c(Cl)cc4c(N5CCOCC(O)C5)nc(OCC56CCCN5CCC6)nc4c3F)cccc2s1 (stereo not drawn) [Compound 156, 4-(7-(2-aminobenzo[d]-thiazol-4-yl)-6-chloro-8-fluoro-2-((tetrahydro-1H-pyrrolizin-7a(5H)-yl)-methoxy)quinazolin-4-yl)-1,4-oxazepan-6-ol]
15 | < 0.5 µM | < 0.5 µM | Cc1cc2c(N3CCNCC(F)(F)C3)nc(OC[C@@H]3CCCN3C)nc2c(F)c1-c1cccc2sc(N)nc12 [Compound 157, 4-(4-(6,6-difluoro-1,4-diazepan-1-yl)-8-fluoro-6-methyl-2-(((S)-1-methyl-pyrrolidin-2-yl)methoxy)-quinazolin-7-yl)benzo[d]-thiazol-2-amine]
16 | < 0.5 µM | < 0.5 µM | CN1CCC[C@H]1COc1nc(N2CCNCC(F)(F)C2)c2cc(Cl)c(-c3cccc4oc(N)nc34)c(F)c2n1 [Compound 158, 4-(6-chloro-4-(6,6-difluoro-1,4-diazepan-1-yl)-8-fluoro-2-(((S)-1-methylpyrrolidin-2-yl)methoxy)quinazolin-7-yl)benzo[d]oxazol-2-amine]
17 | < 0.5 µM | < 0.5 µM | Nc1nc2c(-c3c(Cl)cc4c(N5CCOCC(O)C5)nc(OCC56CCCN5CCC6)nc4c3F)ccc(F)c2s1 (stereo not drawn) [Compound 159, 4-(7-(2-amino-7-fluoro-benzo[d]thiazol-4-yl)-6-chloro-8-fluoro-2-((tetra-hydro-1H-pyrrolizin-7a(5H)-yl)methoxy)quinazolin-4-yl)-1,4-oxazepan-6-ol]
18 | < 0.5 µM | < 0.5 µM | Nc1nc2c(-c3c(Cl)cc4c(N5CCNCC(O)C5)nc(OCC56CCCN5CCC6)nc4c3F)ccc(F)c2s1 (stereo not drawn) [Compound 161, 1-(7-(2-amino-7-fluoro-benzo[d]thiazol-4-yl)-6-chloro-8-fluoro-2-((tetra-hydro-1H-pyrrolizin-7a(5H)-yl)methoxy)quinazolin-4-yl)-1,4-diazepan-6-ol]
19 | < 0.5 µM | < 0.5 µM | Nc1nc2c(-c3c(Cl)cc4c(N5CCNCC(F)C5)nc(OCC56CCCN5CCC6)nc4c3F)ccc(F)c2s1 (stereo not drawn) [Compound 163, 4-(6-chloro-8-fluoro-4-(6-fluoro-1,4-diazepan-1-yl)-2-((tetrahydro-1H-pyrrolizin-7a(5H)-yl)methoxy)quin-azolin-7-yl)-7-fluorobenzo-[d]thiazol-2-amine]
20 | > 0.5 µM | > 0.5 µM | CN1CCC[C@H]1COc1nc(N2CCNCC(F)(F)C2)c2cc(Cl)c(-c3cccc4nc(N)oc34)c(F)c2n1 [Compound 166, 7-(6-chloro-4-(6,6-difluoro-1,4-diazepan-1-yl)-8-fluoro-2-(((S)-1-methylpyrrolidin-2-yl)methoxy)quinazolin-7-yl)benzo[d]oxazol-2-amine]
21 | < 0.5 µM | < 0.5 µM | Nc1nc2c(-c3c(Cl)cc4c(N5CCCOCC5)nc(OC[C@@]56CCCN5C[C@H](F)C6)nc4c3F)cccc2o1 [Compound 167]
22 | > 0.5 µM | > 0.5 µM | CN1CCC[C@H]1COc1nc(N2CCNCC(F)(F)C2)c2cc(Cl)c(-c3cccc4nc(O)oc34)c(F)c2n1 [Compound 169, 7-(6-chloro-4-(6,6-difluoro-1,4-diazepan-1-yl)-8-fluoro-2-(((S)-1-methylpyrrolidin-2-yl)methoxy)quinazolin-7-yl)benzo[d]oxazol-2-ol]
23 | > 0.5 µM | > 0.5 µM | Cc1ccc2[nH]nc(N)c2c1-c1c(Cl)cc2c(N3CCNCC(F)(F)C3)nc(OC[C@@H]3CCCN3C)nc2c1F [Compound 171, 4-(6-chloro-4-(6,6-difluoro-1,4-diazepan-1-yl)-8-fluoro-2-(((S)-1-methylpyrrolidin-2-yl)methoxy)quinazolin-7-yl)-5-methyl-1H-indazol-3-amine]
24 | < 0.5 µM | < 0.5 µM | N#CC1CCCN(c2nc(OCC34CCCN3CCC4)nc3c(F)c(-c4ccc(F)c5sc(N)nc45)c(Cl)cc23)CC1 (stereo not drawn) [Compound 172, 1-(7-(2-amino-7-fluoro-benzo[d]thiazol-4-yl)-6-chloro-8-fluoro-2-((tetra-hydro-1H-pyrrolizin-7a(5H)-yl)methoxy)-quinazolin-4-yl)azepane-4-carbonitrile]

Reference: US20240254129A1, “HETEROCYCLIC COMPOUNDS AND USES THEREOF” (Kumquat Biosciences Inc., priority 2021, published 2024)
